From US12077503B2, “Substituted cyclic amides and their use as herbicides” (FMC CORPORATION, priority 2015, dated 2024)

What was measured:
Type in all cases: in vivo
Kochia (Kochia scoparia) [1] = assay: Test A preemergence; conditions: Preemergence; for Plant response rating, Kochia: 125 g ai/ha, visual injury after approximately 10 d, 0 to 100 scale where 0 is no effect and 100 is complete control; for Kochia plant response rating (0 to 100 scale, 0 is no effect, 100 is complete control): 500 g ai/ha, visual injury approx. 10 d
Summary of the method: (§1)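 Each rating is a visual injury score from 0 to 100 given about 10 d after treatment, judged against untreated controls kept alongside in the greenhouse. In loam soil–sand blend, seeds got a preemergence directed soil spray, while postemergence plants were 2 to 10 cm tall at spraying.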

[2] = system: barnyardgrass (Echinochloa crus-galli); assay: Test A preemergence; conditions: Preemergence; for Plant response rating, Barnyardgrass: 125 g ai/ha, visual injury after approximately 10 d, 0 to 100 scale where 0 is no effect and 100 is complete control; for Barnyardgrass plant response rating (0 to 100 scale, 0 is no effect, 100 is complete control): 500 g ai/ha, visual injury approx. 10 d
Summary of the method: as §1

[3] = system: giant foxtail (Setaria faberii); assay: Test A preemergence; conditions: Preemergence; for Plant response rating, Foxtail, Giant: 125 g ai/ha, visual injury after approximately 10 d, 0 to 100 scale where 0 is no effect and 100 is complete control; for Foxtail, Giant plant response rating (0 to 100 scale, 0 is no effect, 100 is complete control): 500 g ai/ha, visual injury approx. 10 d
Summary of the method: as §1

[4] = system: pigweed (Amaranthus retroflexus); assay: Test A preemergence; conditions: Preemergence; for Plant response rating, Pigweed: 125 g ai/ha, visual injury after approximately 10 d, 0 to 100 scale where 0 is no effect and 100 is complete control; for Pigweed plant response rating (0 to 100 scale, 0 is no effect, 100 is complete control): 500 g ai/ha, visual injury approx. 10 d
[5] = system: ragweed (common ragweed, Ambrosia elatior); assay: Test A preemergence; conditions: Preemergence; for Plant response rating, Ragweed: 125 g ai/ha, visual injury after approximately 10 d, 0 to 100 scale where 0 is no effect and 100 is complete control; for Ragweed plant response rating (0 to 100 scale, 0 is no effect, 100 is complete control): 500 g ai/ha, visual injury approx. 10 d
Summary of the method: as §1

[6] = system: ryegrass, Italian (Italian ryegrass, Lolium multiflorum); assay: Test A preemergence; conditions: Preemergence; for Plant response rating, Ryegrass, Italian: 125 g ai/ha, visual injury after approximately 10 d, 0 to 100 scale where 0 is no effect and 100 is complete control; for Ryegrass, Italian plant response rating (0 to 100 scale, 0 is no effect, 100 is complete control): 500 g ai/ha, visual injury approx. 10 d
Summary of the method: as §1

[7] = system: Galium (catchweed bedstraw, Galium aparine); assay: Test A postemergence
Summary of the method: as §1

Kochia (Kochia scoparia) [8] = assay: Test A postemergence
Summary of the method: as §1

[9] = system: barnyardgrass (Echinochloa crus-galli); assay: Test A postemergence; conditions: for Barnyardgrass plant response rating: visual injury rating on 0 to 100 scale (0 no effect, 100 complete control), approx. 10 d
Summary of the method: as §1

[10] = system: blackgrass (Alopecurus myosuroides); assay: Test A postemergence; conditions: for Blackgrass plant response rating: visual injury rating on 0 to 100 scale (0 no effect, 100 complete control), approx. 10 d
Summary of the method: as §1

corn (Zea mays) = assay: Test A postemergence
Summary of the method: as §1

[11] = system: giant foxtail (Setaria faberii); assay: Test A postemergence
Summary of the method: as §1

[12] = system: pigweed (Amaranthus retroflexus); assay: Test A postemergence
Summary of the method: as §1

[13] = system: ragweed (common ragweed, Ambrosia elatior); assay: Test A postemergence
Summary of the method: as §1

[14] = system: ryegrass, Italian (Italian ryegrass, Lolium multiflorum); assay: Test A postemergence
Summary of the method: as §1

[15] = system: wheat (Triticum aestivum); assay: Test A postemergence
Summary of the method: as §1

[16] = system: barnyardgrass (Echinochloa crus-galli); assay: Test B flooded paddy test; conditions: Flood, 0 to 100 scale where 0 is no effect and 100 is complete control, 13 to 15 d
Summary of the method: (§2)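 Response scored visually against untreated controls, 0 = no effect and 100 = complete control, 13–15 d after treatment in the greenhouse. Compounds added to paddy water held 3 cm above soil surface. Treatment given at 2-leaf stage.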

[17] = system: ducksalad (Heteranthera limosa); assay: Test B flooded paddy test; conditions: Flood, 0 to 100 scale where 0 is no effect and 100 is complete control, 13 to 15 d
Summary of the method: as §2

rice (Oryra sativa) = assay: Test B flooded paddy test; conditions: Flood, 0 to 100 scale where 0 is no effect and 100 is complete control, 13 to 15 d
Summary of the method: as §2

[18] = system: sedge, umbrella (small-flower umbrella sedge, Cyperus difformis); assay: Test B flooded paddy test; conditions: Flood, 0 to 100 scale where 0 is no effect and 100 is complete control, 13 to 15 d
Summary of the method: as §2

[19] = 125 g ai/ha, postemergence, visual rating after approx. 10 d, 0 to 100 scale (0 no effect, 100 complete control)
[20] = Postemergence, 500 g ai/ha, 0 to 100 scale where 0 is no effect and 100 is complete control

Compound | Plant response rating, Kochia (Kochia (Kochia scoparia) [1]) | Kochia plant response rating (0 to 100 scale, 0 is no effect, 100 is complete control) (Kochia (Kochia scoparia) [1]) | Plant response rating, Barnyardgrass [2] | Barnyardgrass plant response rating (0 to 100 scale, 0 is no effect, 100 is complete control) [2] | Plant response rating, Foxtail, Giant [3] | Foxtail, Giant plant response rating (0 to 100 scale, 0 is no effect, 100 is complete control) [3] | Plant response rating, Pigweed [4] | Pigweed plant response rating (0 to 100 scale, 0 is no effect, 100 is complete control) [4] | Plant response rating, Ragweed [5] | Ragweed plant response rating (0 to 100 scale, 0 is no effect, 100 is complete control) [5] | Plant response rating, Ryegrass, Italian [6] | Ryegrass, Italian plant response rating (0 to 100 scale, 0 is no effect, 100 is complete control) [6] | Plant response rating, Galium [7, 19] | Plant response rating, Galium [7, 20] | Plant response rating, Kochia (Kochia (Kochia scoparia) [8]; [19]) | Plant response rating, Kochia (Kochia (Kochia scoparia) [8]; [20]) | Plant response rating, Barnyardgrass [9, 20] | Plant response rating, Blackgrass [10, 20] | Plant response rating, Corn (corn (Zea mays); [19]) | Plant response rating, Corn (corn (Zea mays); [20]) | other results
O=C1NCC(c2ccc(Oc3ccccc3)cc2)C1C(=O)Nc1ccccc1F (racemic) [Compound 534] | 0 | 0 | 0 | 0 | 0 | 0 | 0 | 0 | 0 | 0 | 0 | 0 | 0 | 0 | 0 | 0 | 0 | 0 | 0 | 0 | Barnyardgrass plant response rating ([9]; 125 g ai/ha, postemergence): 0; Blackgrass plant response rating ([10]; 125 g ai/ha, postemergence): 0; Plant response rating, Foxtail, Giant [11, 19]: 0; Plant response rating, Foxtail, Giant [11, 20]: 0; Plant response rating, Pigweed [12, 19]: 0; Plant response rating, Pigweed [12, 20]: 0; Plant response rating, Ragweed [13, 19]: 0; Plant response rating, Ragweed [13, 20]: 0; Plant response rating, Ryegrass, Italian [14, 19]: 0; Plant response rating, Ryegrass, Italian [14, 20]: 0; Plant response rating, Wheat [15, 19]: 0; Plant response rating, Wheat [15, 20]: 0; Plant response rating, Barnyardgrass ([16]; 500 g ai/ha): 0; Plant response rating, Ducksalad ([17]; 500 g ai/ha): 0; Plant response rating, Rice (rice (Oryra sativa); 500 g ai/ha): 20; Plant response rating, Sedge, Umbrella ([18]; 500 g ai/ha): 0
COc1c(F)ccc(NC(=O)C2C(=O)NCC2c2cc(F)cc(F)c2)c1F (racemic) [Compound 541] | 0 | 20 | 90 | 90 | 90 | 90 | 0 | 0 | 0 | 0 | 0 | 20 | 30 | 50 | 0 | 30 | 90 | 60 | 0 | 60 | Barnyardgrass plant response rating ([9]; 125 g ai/ha, postemergence): 90; Blackgrass plant response rating ([10]; 125 g ai/ha, postemergence): 30; Plant response rating, Foxtail, Giant [11, 19]: 80; Plant response rating, Foxtail, Giant [11, 20]: 90; Plant response rating, Pigweed [12, 19]: 0; Plant response rating, Pigweed [12, 20]: 0; Plant response rating, Ragweed [13, 19]: 0; Plant response rating, Ragweed [13, 20]: 30; Plant response rating, Ryegrass, Italian [14, 19]: 20; Plant response rating, Ryegrass, Italian [14, 20]: 40; Plant response rating, Wheat [15, 19]: 20; Plant response rating, Wheat [15, 20]: 80; Plant response rating, Barnyardgrass ([16]; 250 g ai/ha): 35; Plant response rating, Ducksalad ([17]; 250 g ai/ha): 75; Plant response rating, Rice (rice (Oryra sativa); 250 g ai/ha): 0; Plant response rating, Sedge, Umbrella ([18]; 250 g ai/ha): 0
O=C1NCC(c2cc(F)ccc2F)C1C(=O)Nc1ccc(F)cc1F (racemic) [Compound 545] | 0 | 0 | 20 | 70 | 80 | 90 | 0 | 0 | 0 | 0 | 0 | 0 | 0 | 0 | 0 | 0 | 80 | 0 | 0 | 0 | Plant response rating, Barnyardgrass [9, 19]: 0; Plant response rating, Blackgrass [10, 19]: 0; Plant response rating, Foxtail, Giant [11, 19]: 0; Plant response rating, Foxtail, Giant [11, 20]: 70; Plant response rating, Pigweed [12, 19]: 0; Plant response rating, Pigweed [12, 20]: 0; Plant response rating, Ragweed [13, 19]: 0; Plant response rating, Ragweed [13, 20]: 0; Plant response rating, Ryegrass, Italian [14, 19]: 0; Plant response rating, Ryegrass, Italian [14, 20]: 0; Plant response rating, Wheat [15, 19]: 0; Plant response rating, Wheat [15, 20]: 0; Plant response rating, Barnyardgrass ([16]; 250 g ai/ha): 0; Plant response rating, Ducksalad ([17]; 250 g ai/ha): 0; Plant response rating, Rice (rice (Oryra sativa); 250 g ai/ha): 0; Plant response rating, Sedge, Umbrella ([18]; 250 g ai/ha): 0
